ChEMBL document CHEMBL1201862, “PubChem BioAssay data set” (2004)
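How tested: cells in 96-well plates exposed to compound for 48 hours at five concentrations. GI50 = concentration required for 50% inhibition of growth.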 Active and inactive are the calls of the source. Cut-off read from the data, not from the text of the source: active = GI50 up to about 1.1 µM and inactive = higher.

How the values were obtained:
Assay in all cases: growth of human tumour cells (NCI), 48 h
RPMI-8226 = test system: RPMI-8226
SF-539 = test system: SF-539
HL-60 = test system: HL-60
SF-268 = test system: SF-268
HCT-116 = test system: HCT-116
MDA-MB-231 = test system: MDA-MB-231
HCT-15 = test system: HCT-15
SF-295 = test system: SF-295
SK-MEL-28 = test system: SK-MEL-28
PC-3 = test system: PC-3
EKVX = test system: EKVX
NCI-H226 = test system: NCI-H226
SK-OV-3 = test system: SK-OV-3
SNB-75 = test system: SNB-75
CAKI-1 = test system: CAKI-1
SR = test system: SR
U-251 = test system: U-251
SK-MEL-2 = test system: SK-MEL-2
NCI-H522 = test system: NCI-H522
MDA-MB-435 = test system: MDA-MB-435

Row | Structure (SMILES) | GI50 (RPMI-8226) | GI50 (SF-539) | GI50 (HL-60) | GI50 (SF-268) | GI50 (HCT-116) | GI50 (MDA-MB-231) | GI50 (HCT-15) [µM] | GI50 (SF-295) | GI50 (SK-MEL-28) | GI50 (PC-3) | GI50 (EKVX) | GI50 (NCI-H226) | GI50 (SK-OV-3) | GI50 (SNB-75) | GI50 (CAKI-1) | GI50 (SR) | GI50 (U-251) | GI50 (SK-MEL-2) | GI50 (NCI-H522) | GI50 (MDA-MB-435)
1 | COc1ccccc1N1C(=O)C2C3c4ccccc4C(OC(C)=O)(c4ccccc43)C2C1=O (stereo not drawn) | > 100 µM (inactive) | 72.1 µM (inactive) | > 100 µM (inactive) | 30.8 µM (inactive) | 57.3 µM (inactive) | > 100 µM (inactive) | > 100 | 78.7 µM (inactive) | 71.9 µM (inactive) | > 100 µM (inactive) | > 100 µM (inactive) | > 100 µM (inactive) | > 100 µM (inactive) | 17.5 µM (inactive) | > 100 µM (inactive) | > 100 µM (inactive) | 60.7 µM (inactive) | – | – | –
2 | CC#N.O[C@@H]1CCCC[C@H]1O.O[C@@H]1CCCC[C@H]1O.[TeH2] | 26.7 µM (inactive) | > 100 µM (inactive) | 14.6 µM (inactive) | > 100 µM (inactive) | 13.4 µM (inactive) | – | 18.1 | 18.6 µM (inactive) | > 100 µM (inactive) | – | – | 46.1 µM (inactive) | > 100 µM (inactive) | > 100 µM (inactive) | > 100 µM (inactive) | 24.8 µM (inactive) | 13.9 µM (inactive) | > 100 µM (inactive) | 37.2 µM (inactive) | –
3 | COc1cc(S(=O)(=O)N/N=C/C=C/c2ccccc2)c(OC)cc1NC(C)=O | 19.1 µM (inactive) | 5.26 µM (inactive) | 33 µM (inactive) | 35.4 µM (inactive) | 91.2 µM (inactive) | – | 19.5 | > 100 µM (inactive) | 56.5 µM (inactive) | 77.8 µM (inactive) | 5.14 µM (inactive) | – | > 100 µM (inactive) | > 100 µM (inactive) | 16 µM (inactive) | 12.3 µM (inactive) | – | 47 µM (inactive) | 25.2 µM (inactive) | 38.8 µM (inactive)
4 | CC(C)CC(N)C(=O)Nc1ccc2ccccc2c1 (stereo not drawn) | > 100 µM (inactive) | > 100 µM (inactive) | 98.2 µM (inactive) | > 100 µM (inactive) | > 100 µM (inactive) | > 100 µM (inactive) | > 100 | > 100 µM (inactive) | > 100 µM (inactive) | > 100 µM (inactive) | > 100 µM (inactive) | 67.8 µM (inactive) | > 100 µM (inactive) | > 100 µM (inactive) | 63.1 µM (inactive) | > 100 µM (inactive) | > 100 µM (inactive) | > 100 µM (inactive) | > 100 µM (inactive) | –
5 | O=S(=O)(c1ccccc1)c1nccs1 | > 100 µM (inactive) | > 100 µM (inactive) | > 100 µM (inactive) | > 100 µM (inactive) | > 100 µM (inactive) | – | > 100 | > 100 µM (inactive) | > 100 µM (inactive) | – | > 100 µM (inactive) | > 100 µM (inactive) | > 100 µM (inactive) | > 100 µM (inactive) | > 100 µM (inactive) | > 100 µM (inactive) | > 100 µM (inactive) | > 100 µM (inactive) | > 100 µM (inactive) | –
6 | COc1cccc(C2c3cc4c(cc3OC(N3CCOCC3)C2C)OCO4)c1OC (stereo not drawn) | 6.59 µM (inactive) | 10.6 µM (inactive) | – | 9.59 µM (inactive) | 2.98 µM (inactive) | – | 4.36 | 2.84 µM (inactive) | 13.4 µM (inactive) | 11.3 µM (inactive) | 18.1 µM (inactive) | – | – | 4.88 µM (inactive) | 2.02 µM (inactive) | 4.75 µM (inactive) | – | 6.41 µM (inactive) | 4.26 µM (inactive) | 10 µM (inactive)
7 | CCCc1nc(NC#N)nc(C(=O)NC23CC4CC(CC(C4)C2)C3)c1C | > 100 µM (inactive) | > 100 µM (inactive) | > 100 µM (inactive) | > 100 µM (inactive) | > 100 µM (inactive) | – | > 100 | > 100 µM (inactive) | > 100 µM (inactive) | – | > 100 µM (inactive) | > 100 µM (inactive) | > 100 µM (inactive) | > 100 µM (inactive) | > 100 µM (inactive) | > 100 µM (inactive) | > 100 µM (inactive) | > 100 µM (inactive) | > 100 µM (inactive) | –
